# Measurements taken from patent publication US20150218172A1, “Pyrrolo[2,3-D]Pyrimidine Tropomyosin-Related Kinase Inhibitors” (PFIZER LIMITED, priority 2012, published 2015).
# Biological target: T1, TrkA (Homo sapiens, UniProt P04629)
# T1 construct: aa 441-796; His; purchased Invitrogen PV3144
# Assay: Isolated TRK enzyme assay (HTRF KinEASE-TK kit), PV3144 TrkA enzyme assay
# Assay type: biochemical
# Conditions: PV3144 TrkA enzyme assay, recombinant His-tagged cytoplasmic domain aa 441-796, 4 nM enzyme, 40 uM ATP; arithmetic mean where more than one reading; read-out: Trka enzyme (IC50)
# Summary of the method: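 Recombinant His-tagged cytoplasmic domain of human TrkA, preactivated with ATP for 20 min, then 20 min with compound before biotinylated TK substrate (1 uM final) at room temperature. HTRF read at 665/620 nm; % inhibition normalised to reference-compound and DMSO controls, IC50 from sigmoid fit, mean of replicates.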
# T1 sequence (P04629 441-796): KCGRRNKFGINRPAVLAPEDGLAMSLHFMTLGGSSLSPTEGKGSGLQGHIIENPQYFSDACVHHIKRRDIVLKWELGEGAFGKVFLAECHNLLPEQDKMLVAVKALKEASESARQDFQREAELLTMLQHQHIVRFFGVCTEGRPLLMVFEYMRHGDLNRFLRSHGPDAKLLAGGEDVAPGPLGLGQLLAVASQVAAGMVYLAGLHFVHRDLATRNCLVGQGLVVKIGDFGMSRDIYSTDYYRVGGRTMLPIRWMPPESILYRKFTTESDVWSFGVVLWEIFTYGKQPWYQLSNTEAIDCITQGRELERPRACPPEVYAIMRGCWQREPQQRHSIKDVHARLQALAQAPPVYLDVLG
row,IC50,Structure (SMILES)
1,315 nM,"Cc1cc(C(=O)c2cn(C(C)C)c3ncncc23)cc(NC(=O)Cc2ccc(C#N)cc2)n1 [Example 76, 2-(4-cyanophenyl)-N-(6-methyl-4-{[7-(propan-2-yl)-7H-pyrrolo[2,3-d]pyrimidin-5-yl]carbonyl}pyridin-2-yl)acetamide]"
2,226 nM,"Cc1cc(C(=O)c2cn(C(C)C)c3ncncc23)cc(NC(=O)Cc2ccc(F)cc2)n1 [Example 77, 2-(4-fluorophenyl)-N-(6-methyl-4-{[7-(propan-2-yl)-7H-pyrrolo[2,3-d]pyrimidin-5-yl]carbonyl}pyridin-2-yl)acetamide]"
3,118 nM,"Cc1cc(C(=O)c2cn(C(C)C)c3ncncc23)cc(NC(=O)Cc2ccc(C#N)c(C(F)(F)F)c2)n1 [Example 78, 2-[4-cyano-3-(trifluoromethyl)phenyl]-N-(6-methyl-4-{[7-(propan-2-yl)-7H-pyrrolo[2,3-d]pyrimidin-5-yl]carbonyl}pyridin-2-yl)acetamide]"
4,131 nM,"CC(C)n1cc(C(=O)c2cc(NC(=O)Cn3cc(C(F)(F)F)nn3)ccn2)c2cncnc21 [Example 79, N-(2-{[7-(propan-2-yl)-7H-pyrrolo[2,3-d]pyrimidin-5-yl]carbonyl}pyridin-4-yl)-2-[4-(trifluoromethyl)-1H-1,2,3-triazol-1-yl]acetamide]"
5,268 nM,"CC(C)n1cc(C(=O)c2cc(NC(=O)Cc3cccc(S(C)(=O)=O)c3)ccn2)c2cncnc21 [Example 81, 2-[3-(methylsulfonyl)phenyl]-N-(2-{[7-(propan-2-yl)-7H-pyrrolo[2,3-d]pyrimidin-5-yl]carbonyl}pyridin-4-yl)acetamide]"
6,76.1 nM,"CC(C)n1cc(C(=O)c2cc(NC(=O)Cn3cc(C4CC4)nn3)ccn2)c2cncnc21 [Example 82, 2-(4-cyclopropyl-1H-1,2,3-triazol-1-yl)-N-(2-{[7-(propan-2-yl)-7H-pyrrolo[2,3-d]pyrimidin-5-yl]carbonyl}pyridin-4-yl)acetamide]"
7,10.2 nM,"CC(C)n1cc(C(=O)c2cc(NC(=O)Cn3ccc(C4CC4)n3)ccn2)c2cncnc21 [Example 83, 2-(3-cyclopropyl-1H-pyrazol-1-yl)-N-(2-{[7-(propan-2-yl)-7H-pyrrolo[2,3-d]pyrimidin-5-yl]carbonyl}pyridin-4-yl)acetamide]"
8,27.1 nM,"Cc1cc(C(F)(F)F)nn1CC(=O)Nc1ccnc(C(=O)c2cn(C(C)C)c3nc(N)ncc23)c1 [Example 84, N-(2-{[2-amino-7-(propan-2-yl)-7H-pyrrolo[2,3-d]pyrimidin-5-yl]carbonyl}pyridin-4-yl)-2-[5-methyl-3-(trifluoromethyl)-1H-pyrazol-1-yl]acetamide]"
9,54.1 nM,"CC(C)n1cc(C(=O)c2cc(NC(=O)Cn3ccc(C(F)(F)F)n3)ccn2)c2cnc(N)nc21 [Example 85, N-(2-{[2-amino-7-(propan-2-yl)-7H-pyrrolo[2,3-d]pyrimidin-5-yl]carbonyl}pyridin-4-yl)-2-[3-(trifluoromethyl)-1H-pyrazol-1-yl]acetamide]"
10,35 nM,CC(C)n1cc(C(=O)c2cc(NC(=O)Cc3ccc(Cl)cn3)ccn2)c2cnc(N)nc21 [Example 86]
11,6.43 nM,"CC(C)n1cc(C(=O)c2cc(NC(=O)Cc3ccc(Cl)cc3)ccn2)c2cnc(N)nc21 [Example 87, N-(2-{[2-amino-7-(propan-2-yl)-7H-pyrrolo[2,3-d]pyrimidin-5-yl]carbonyl}pyridin-4-yl)-2-(4-chlorophenyl)acetamide]"
12,75.9 nM,"CC(C)n1cc(C(=O)c2cc(NC(=O)Cc3cccc(S(C)(=O)=O)c3)ccn2)c2cnc(N)nc21 [Example 88, N-(2-{[2-amino-7-(propan-2-yl)-7H-pyrrolo[2,3-d]pyrimidin-5-yl]carbonyl}pyridin-4-yl)-2-[3-(methylsulfonyl)phenyl]acetamide]"
13,76.3 nM,"CC(C)n1cc(C(=O)c2cc(NC(=O)Cc3ccc(F)cn3)ccn2)c2cnc(N)nc21 [Example 89, N-(2-{[2-amino-7-(propan-2-yl)-7H-pyrrolo[2,3-d]pyrimidin-5-yl]carbonyl}pyridin-4-yl)-2-(5-fluoropyridin-2-yl)acetamide]"
14,18.5 nM,"CC(C)n1cc(C(=O)c2cc(NC(=O)Cn3cc(C(F)(F)F)nn3)ccn2)c2cnc(N)nc21 [Example 90, N-(2-{[2-amino-7-(propan-2-yl)-7H-pyrrolo[2,3-d]pyrimidin-5-yl]carbonyl}pyridin-4-yl)-2-[4-(trifluoromethyl)-1H-1,2,3-triazol-1-yl]acetamide]"
15,44.5 nM,"CC(C)n1cc(C(=O)c2cc(NC(=O)Cn3cc(C4CC4)nn3)ccn2)c2cnc(N)nc21 [Example 91, N-(2-{[2-amino-7-(propan-2-yl)-7H-pyrrolo[2,3-d]pyrimidin-5-yl]carbonyl}pyridin-4-yl)-2-(4-cyclopropyl-1H-1,2,3-triazol-1-yl)acetamide]"
16,747 nM,"O=C(Cc1ccc(Cl)cc1)Nc1ccnc(C(=O)c2cn(C(CO)CO)c3ncncc23)c1 [Example 92, 2-(4-chlorophenyl)-N-(2-{[7-(1,3-dihydroxypropan-2-yl)-7H-pyrrolo[2,3-d]pyrimidin-5-yl]carbonyl}pyridin-4-yl)acetamide]"
17,164 nM,"O=C(Cc1ccc(C(F)(F)F)cc1)Nc1ccnc(C(=O)c2cn(C(CO)CO)c3ncncc23)c1 [Example 93, N-(2-{[7-(1,3-dihydroxypropan-2-yl)-7H-pyrrolo[2,3-d]pyrimidin-5-yl]carbonyl}pyridin-4-yl)-2-[4-(trifluoromethyl)phenyl]acetamide]"
18,922 nM,"O=C(Cc1ccc(C(F)(F)F)c(F)c1)Nc1ccnc(C(=O)c2cn(C(CO)CO)c3ncncc23)c1 [Example 94, N-(2-{[7-(1,3-dihydroxypropan-2-yl)-7H-pyrrolo[2,3-d]pyrimidin-5-yl]carbonyl}pyridin-4-yl)-2-[3-fluoro-4-(trifluoromethyl)phenyl]acetamide]"
19,146 nM,"O=C(Cc1ccc(Cl)cc1Cl)Nc1ccnc(C(=O)c2cn(C(CO)CO)c3ncncc23)c1 [Example 95, 2-(2,4-dichlorophenyl)-N-(2-{[7-(1,3-dihydroxypropan-2-yl)-7H-pyrrolo[2,3-d]pyrimidin-5-yl]carbonyl}pyridin-4-yl)acetamide]"
20,139 nM,"O=C(Cc1cccc(C(F)(F)F)c1)Nc1ccnc(C(=O)c2cn(C(CO)CO)c3ncncc23)c1 [Example 96, N-(2-{[7-(1,3-dihydroxypropan-2-yl)-7H-pyrrolo[2,3-d]pyrimidin-5-yl]carbonyl}pyridin-4-yl)-2-[3-(trifluoromethyl)phenyl]acetamide]"
21,876 nM,"O=C(Cc1cccc(OC(F)(F)F)c1)Nc1ccnc(C(=O)c2cn(C(CO)CO)c3ncncc23)c1 [Example 97, N-(2-{[7-(1,3-dihydroxypropan-2-yl)-7H-pyrrolo[2,3-d]pyrimidin-5-yl]carbonyl}pyridin-4-yl)-2-[3-(trifluoromethoxy)phenyl]acetamide]"
22,1500 nM,"O=C(Cc1ccc(OC(F)(F)F)cc1)Nc1ccnc(C(=O)c2cn(C(CO)CO)c3ncncc23)c1 [Example 98, N-(2-{[7-(1,3-dihydroxypropan-2-yl)-7H-pyrrolo[2,3-d]pyrimidin-5-yl]carbonyl}pyridin-4-yl)-2-[4-(trifluoromethoxy)phenyl]acetamide]"
23,430 nM,"O=C(Cc1ccc(Cl)c(Cl)c1)Nc1ccnc(C(=O)c2cn(C(CO)CO)c3ncncc23)c1 [Example 99, 2-(3,4-dichlorophenyl)-N-(2-{[7-(1,3-dihydroxypropan-2-yl)-7H-pyrrolo[2,3-d]pyrimidin-5-yl]carbonyl}pyridin-4-yl)acetamide]"
24,2190 nM,"O=C(Cc1ccc(Cl)cn1)Nc1ccnc(C(=O)c2cn(C(CO)CO)c3ncncc23)c1 [Example 100, 2-(5-chloropyridin-2-yl)-N-(2-{[7-(1,3-dihydroxypropan-2-yl)-7H-pyrrolo[2,3-d]pyrimidin-5-yl]carbonyl}pyridin-4-yl)acetamide]"
25,247 nM,"O=C(Cn1ccc(C(F)(F)F)n1)Nc1ccnc(C(=O)c2cn(C(CO)CO)c3ncncc23)c1 [Example 101, N-(2-{[7-(1,3-dihydroxypropan-2-yl)-7H-pyrrolo[2,3-d]pyrimidin-5-yl]carbonyl}pyridin-4-yl)-2-[3-(trifluoromethyl)-1H-pyrazol-1-yl]acetamide]"
26,96.6 nM,"CC(CO)(CO)n1cc(C(=O)c2cc(NC(=O)Cc3ccc(Cl)cc3)ccn2)c2cncnc21 [Example 102, 2-(4-chlorophenyl)-N-(2-{[7-(1,3-dihydroxy-2-methylpropan-2-yl)-7H-pyrrolo[2,3-d]pyrimidin-5-yl]carbonyl}pyridin-4-yl)acetamide]"
27,13.6 nM,"CC(CO)(CO)n1cc(C(=O)c2cc(NC(=O)Cc3ccc(C(F)(F)F)cc3)ccn2)c2cncnc21 [Example 103, N-(2-{[7-(1,3-dihydroxy-2-methylpropan-2-yl)-7H-pyrrolo[2,3-d]pyrimidin-5-yl]carbonyl}pyridin-4-yl)-2-[4-(trifluoromethyl)phenyl]acetamide]"
28,91.1 nM,"CC(CO)(CO)n1cc(C(=O)c2cc(NC(=O)Cc3cccc(C(F)(F)F)c3)ccn2)c2cncnc21 [Example 104, N-(2-{[7-(1,3-dihydroxy-2-methylpropan-2-yl)-7H-pyrrolo[2,3-d]pyrimidin-5-yl]carbonyl}pyridin-4-yl)-2-[3-(trifluoromethyl)phenyl]acetamide]"
29,72.7 nM,"CC(CO)(CO)n1cc(C(=O)c2cc(NC(=O)Cn3ccc(C(F)(F)F)n3)ccn2)c2cncnc21 [Example 105, N-(2-{[7-(1,3-dihydroxy-2-methylpropan-2-yl)-7H-pyrrolo[2,3-d]pyrimidin-5-yl]carbonyl}pyridin-4-yl)-2-[3-(trifluoromethyl)-1H-pyrazol-1-yl]acetamide]"
30,663 nM,"CC(CO)(CO)n1cc(C(=O)c2cc(NC(=O)Cc3ccc(Cl)cn3)ccn2)c2cncnc21 [Example 106, 2-(5-chloropyridin-2-yl)-N-(2-{[7-(1,3-dihydroxy-2-methylpropan-2-yl)-7H-pyrrolo[2,3-d]pyrimidin-5-yl]carbonyl}pyridin-4-yl)acetamide]"
